Test results as given in patent publication US20220017566A1, “TERPINOID DERIVATIVES AND USES THEREOF” (SICHUAN HAISCO PHARMACEUTICAL CO., LTD., priority 2018, published 2022).
Read-outs that look alike come from different tables or passages of the source.

How the values were obtained:
[1] = target: T1, CYP1A2 (Homo sapiens, UniProt P05177); test: CYP450 enzyme inhibition in liver microsomes (cocktail probe incubation); format: in vitro ADME; conditions: species not given, 0.05-50 μM tested
T1 construct: studied in liver microsomes of CD-1 mouse, Sprague Dawley rat, Beagle dog, cynomolgus monkey, and human; from tissue; host or cells: liver microsomes
T1 sequence (P05177 1-516): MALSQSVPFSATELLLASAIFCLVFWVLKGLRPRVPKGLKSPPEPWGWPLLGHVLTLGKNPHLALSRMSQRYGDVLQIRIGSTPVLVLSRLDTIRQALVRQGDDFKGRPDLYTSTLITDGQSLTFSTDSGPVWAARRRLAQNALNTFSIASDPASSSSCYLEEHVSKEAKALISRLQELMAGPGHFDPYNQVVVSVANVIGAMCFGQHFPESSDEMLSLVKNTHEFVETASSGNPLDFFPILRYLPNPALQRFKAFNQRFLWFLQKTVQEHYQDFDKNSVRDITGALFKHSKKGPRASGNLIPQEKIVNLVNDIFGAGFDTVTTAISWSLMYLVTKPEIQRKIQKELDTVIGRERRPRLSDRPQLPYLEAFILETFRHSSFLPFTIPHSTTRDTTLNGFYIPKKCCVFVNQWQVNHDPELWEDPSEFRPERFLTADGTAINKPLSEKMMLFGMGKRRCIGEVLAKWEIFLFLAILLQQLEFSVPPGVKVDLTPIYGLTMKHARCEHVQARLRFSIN
Procedure: (§1) The inhibition potential of test compounds towards major drug metabolizing CYP450 enzymes was studied in liver microsomes of CD-1 mouse, Sprague Dawley rat, Beagle dog, cynomolgus monkey, and human. The inhibition of CYP1A2, CYP2C9, CYP2C19, CYP2D6, and CYP3A4 was assessed using CYP450 specific probe reactions in a cocktail incubation. Seven concentrations of test compounds (0.05, 0.15, 0.5, 1.5, 5, 15, and 50 μM) were evaluated. In addition, known inhibitors for each probe reaction were included as positive controls and incubated at a single concentration above their respective IC50.

[2] = target: T2, CYP3A4 (Homo sapiens, UniProt P08684); test: as above; format: in vitro ADME; conditions: species not given, 0.05-50 μM tested
T2 construct: studied in liver microsomes of CD-1 mouse, Sprague Dawley rat, Beagle dog, cynomolgus monkey, and human; from tissue; host or cells: liver microsomes
Procedure: as §1

[3] = target: T3, CYP2C19 (Homo sapiens, UniProt P33261); test: as above; format: in vitro ADME; conditions: species not given, 0.05-50 μM tested
T3 construct: studied in liver microsomes of CD-1 mouse, Sprague Dawley rat, Beagle dog, cynomolgus monkey, and human; from tissue; host or cells: liver microsomes
Procedure: as §1

[4] = target: T4, CYP2C9 (Homo sapiens, UniProt P11712); test: as above; format: in vitro ADME; conditions: species not given, 0.05-50 μM tested
T4 construct: studied in liver microsomes of CD-1 mouse, Sprague Dawley rat, Beagle dog, cynomolgus monkey, and human; from tissue; host or cells: liver microsomes
Procedure: as §1

[5] = target: T5, CYP2D6 (Homo sapiens, UniProt P10635); test: as above; format: in vitro ADME; conditions: species not given, 0.05-50 μM tested
T5 construct: studied in liver microsomes of CD-1 mouse, Sprague Dawley rat, Beagle dog, cynomolgus monkey, and human; from tissue; host or cells: liver microsomes
Procedure: as §1

[6] = Metabolic stability in human liver microsomes; format: in vitro ADME
Procedure: (§2) The metabolic stability of test compounds was examined in CD-1 mouse, Sprague Dawley rat, Beagle dog, cynomolgus monkey, and human liver microsomes. Test compound (final concentration 1 μM) was mixed with diluted liver microsomes from each of the 5 species and a small aliquot was taken at 0, 5, 10, 20, 30, and 60 minutes for LC/MS/MS analysis. Intrinsic clearance and half-life were calculated.

[7] = Metabolic stability in monkey liver microsomes; format: in vitro ADME, cynomolgus monkey
Procedure: as §2

[8] = test system: IFNγ-induced NO production in Raw 264.7 cells; test: Nitric oxide assay: suppression of IFNγ-induced NO production (Griess nitrite, adjusted to live cell numbers); format: cell-based; conditions: Mus musculus, RAW264.7, 2 h pretreatment, IFNγ 10 ng/ml for 24 hours
Procedure: Raw 264.7 cells were seeded in 96-well plates at a density of 30, 000 cells per well in DMEM+10% FBS and incubated overnight. The next day, cell media was replaced by DMEM+2% FBS. Cells were pretreated with DMSO or test compounds (top dose 100 nM, 1:4 serial dilution, 10-point) for 2 hours and then treated with recombinant mouse IFNγ (R&D, Cat# 485-MI-100) at a final concentration of 10 ng/ml for 24 hours. Nitrite levels were measured in culture media as a surrogate for nitric oxide using the Griess Reagent System (Promega, Cat# G2930). Cell viability was determined using CellTiter Glo reagents (Promega, Cat#G7572). The nitrite levels were adjusted to live cell numbers and inhibition percentage was calculated. The inhibition percentage was then plotted against compound concentration, and IC50 values were calculated using four-parameter algorithm in Graphpad Prism.

[9] = Metabolic stability in mouse liver microsomes; format: in vitro ADME, CD-1 mouse; conditions: CD-1
Procedure: as §2

[10] = Metabolic stability in dog liver microsomes; format: in vitro ADME; conditions: Beagle
Procedure: as §2

[11] = Metabolic stability in rat liver microsomes; format: in vitro ADME; conditions: Sprague Dawley
Procedure: as §2

[12] = Pharmacokinetic studies in Sprague Dawley rats (oral gavage and IV); format: in vivo; conditions: rat, male SD rats, plasma; for AUC(0-t): read-out: AUC0-24 h; for bioavailability: oral 5 mg/kg vs IV 1 mg/kg, read-out: Bioavailibility F %
Procedure: The pharmacokinetics of test compounds was evaluated in male SD rats when administered via oral gavage and IV injection. For oral dosing, compound was formulated in 0.5% methylcellulose and administered at doses of 5 mg/kg (3 rats per dose level) and volume of 10 mL/kg. For IV dosing, compound was formulated in 5% DMSO/5% Solutol/90% saline and administered to 3 rats at a dose of 1 mg/kg and a volume of 5 mL/kg. The rats were fasted overnight before administration. Plasma samples were collected predose and at 0.5, 1, 3, 6, 9, 12, and 24 hours postdose. The samples were analyzed by LC/MS/MS and the concentration of test compound at each timepoint was determined by linear regression. Pharmacokinetic parameters were calculated from the plasma concentrations using Pheonix WinNonlin.

T5 sequence (P10635 whole entry): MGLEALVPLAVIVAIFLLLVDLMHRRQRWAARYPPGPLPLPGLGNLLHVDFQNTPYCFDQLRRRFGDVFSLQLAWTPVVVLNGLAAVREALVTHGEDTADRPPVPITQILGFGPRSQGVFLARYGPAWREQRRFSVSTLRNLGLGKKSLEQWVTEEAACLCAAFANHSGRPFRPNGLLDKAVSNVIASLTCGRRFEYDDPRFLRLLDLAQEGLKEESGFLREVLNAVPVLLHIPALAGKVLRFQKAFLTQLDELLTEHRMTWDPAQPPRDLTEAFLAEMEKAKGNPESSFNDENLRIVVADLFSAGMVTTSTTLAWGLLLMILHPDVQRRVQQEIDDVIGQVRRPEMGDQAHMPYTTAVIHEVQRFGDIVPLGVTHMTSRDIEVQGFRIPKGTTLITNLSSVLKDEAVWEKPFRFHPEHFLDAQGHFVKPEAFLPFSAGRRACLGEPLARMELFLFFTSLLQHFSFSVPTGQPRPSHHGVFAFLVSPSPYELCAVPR
T4 sequence (P11712 whole entry): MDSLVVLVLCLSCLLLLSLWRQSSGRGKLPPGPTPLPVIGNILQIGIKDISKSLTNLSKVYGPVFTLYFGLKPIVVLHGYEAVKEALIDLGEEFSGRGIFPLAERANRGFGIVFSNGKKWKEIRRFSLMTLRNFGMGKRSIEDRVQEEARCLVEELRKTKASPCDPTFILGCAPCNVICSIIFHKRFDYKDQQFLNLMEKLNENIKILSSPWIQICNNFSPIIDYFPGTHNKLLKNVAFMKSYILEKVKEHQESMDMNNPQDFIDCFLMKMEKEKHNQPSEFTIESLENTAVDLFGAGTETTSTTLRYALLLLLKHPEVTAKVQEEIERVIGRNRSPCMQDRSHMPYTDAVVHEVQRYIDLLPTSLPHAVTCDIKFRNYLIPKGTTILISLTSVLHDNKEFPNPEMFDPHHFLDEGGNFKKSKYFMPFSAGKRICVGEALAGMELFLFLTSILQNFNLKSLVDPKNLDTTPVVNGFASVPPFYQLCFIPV
T2 sequence (P08684 whole entry): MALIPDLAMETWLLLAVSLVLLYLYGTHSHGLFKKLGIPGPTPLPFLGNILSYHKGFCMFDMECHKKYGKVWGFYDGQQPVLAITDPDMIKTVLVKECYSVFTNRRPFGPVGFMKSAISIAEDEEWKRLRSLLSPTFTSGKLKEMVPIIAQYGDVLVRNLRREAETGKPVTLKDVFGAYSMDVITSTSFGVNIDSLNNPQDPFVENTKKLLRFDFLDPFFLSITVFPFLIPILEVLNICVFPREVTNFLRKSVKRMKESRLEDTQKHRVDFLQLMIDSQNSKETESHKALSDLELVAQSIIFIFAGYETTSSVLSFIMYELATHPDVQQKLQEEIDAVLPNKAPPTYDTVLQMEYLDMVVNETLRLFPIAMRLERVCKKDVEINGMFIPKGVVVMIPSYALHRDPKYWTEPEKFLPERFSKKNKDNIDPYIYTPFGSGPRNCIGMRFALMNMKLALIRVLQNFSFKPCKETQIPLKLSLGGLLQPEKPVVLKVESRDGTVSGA
T3 sequence (P33261 whole entry): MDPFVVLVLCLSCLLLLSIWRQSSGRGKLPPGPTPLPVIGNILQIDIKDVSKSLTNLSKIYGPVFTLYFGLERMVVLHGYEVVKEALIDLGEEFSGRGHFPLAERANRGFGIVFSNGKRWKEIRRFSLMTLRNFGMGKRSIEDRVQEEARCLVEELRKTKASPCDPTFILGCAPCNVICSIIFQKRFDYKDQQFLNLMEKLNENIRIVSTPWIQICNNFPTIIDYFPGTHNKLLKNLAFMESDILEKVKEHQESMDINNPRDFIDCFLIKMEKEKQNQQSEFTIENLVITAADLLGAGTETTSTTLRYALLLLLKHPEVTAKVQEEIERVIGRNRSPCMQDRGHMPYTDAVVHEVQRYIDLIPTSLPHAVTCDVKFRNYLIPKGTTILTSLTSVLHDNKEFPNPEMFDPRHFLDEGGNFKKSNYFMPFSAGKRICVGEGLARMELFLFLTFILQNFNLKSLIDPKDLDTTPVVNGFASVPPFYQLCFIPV

SMILES | IC50 [1] | IC50 [2] | IC50 [3] | IC50 [4] | IC50 [5] | IC50 [8] | C0 ([12]; IV (1 mg/kg)) | clearance ([12]; IV (1 mg/kg)) | half-life ([12]; IV (1 mg/kg)) | AUC(0-t) ([12]; IV (1 mg/kg)) | Cmax ([12]; Oral (5 mg/kg)) | half-life ([12]; Oral (5 mg/kg)) | AUC(0-t) ([12]; Oral (5 mg/kg)) | bioavailability [12] | also measured
CC1(C)C(=O)C(C#N)=C[C@]2(C)C3=CC(=O)[C@@H]4[C@@H]5C[C@@](C)(c6nnco6)CC[C@]5(C)CC[C@@]4(C)[C@]3(C)CC[C@@H]12 [Example 9, (4aR,6aS,6bR,8aS,11S,12aS,12bR,14bS)-4,4,6a,6b,8a,11,14b-heptamethyl-11-(1,3,4-oxadiazol-2-yl)-3,13-dioxo-3,4,4a,5,6,6a,6b,7,8,8a,9,10,11,12,12a,12b,13,14b-octadecahydropicene-2-carbonitrile] | > 50 µM | 0.3 µM | 13.3 µM | 3.1 µM | 28.7 µM | < 0.01 µM | 427 ng/mL | 56 mL/min/kg | 1.5 h | 301 ng·h/mL | 143 ng/mL | 2.2 h | 333 ng·h/mL | 22.1% | CLint scaled at 1 μM [6]: 94 mL/min/kg; half-life at 1 μM [6]: 0.222 h; CLint scaled at 1 μM [7]: 270 mL/min/kg; half-life at 1 μM [7]: 6.9 min; CLint scaled at 1 μM [9]: 186 mL/min/kg; half-life at 1 μM [9]: 0.492 h; CLint scaled at 1 μM [10]: 104 mL/min/kg; half-life at 1 μM [10]: 0.318 h; CLint scaled at 1 μM [11]: 72.1 mL/min/kg; half-life at 1 μM [11]: 0.577 h
CC1(C)C(=O)C(C#N)=C[C@]2(C)C3=CC(=O)[C@@H]4[C@@H]5C[C@@](C)(N6C(=O)CCC6=O)CC[C@]5(C)CC[C@@]4(C)[C@]3(C)CC[C@@H]12 [Example 18, (4aR,6aS,6bR,8aS,11S,12aS,12bR,14bS)-11-(2,5-dioxopyrrolidin-1-yl)-4,4,6a,6b,8a,11,14b-heptamethyl-3,13-dioxo-3,4,4a,5,6,6a,6b,7,8,8a,9,10,11,12,12a,12b,13,14b-octadecahydropicene-2-carbonitrile] | > 50 µM | 2.1 µM | 19.6 µM | 4.7 µM | > 50 µM | < 0.01 µM | 472 ng/mL | 62.5 mL/min/kg | 1.4 h | 267 ng·h/mL | 50 ng/mL | 2.3 h | 181 ng·h/mL | 13.6% | –
CC1(C)C(=O)C(C#N)=C[C@]2(C)C3=CC(=O)[C@@H]4[C@@H]5C[C@@](C)(c6nnc(C(=O)NC7CC7)o6)CC[C@]5(C)CC[C@@]4(C)[C@]3(C)CC[C@@H]12 [Example 19, 5-((2S,4aS,6aR,6bS,8aR,12aS,14aR,14bS)-11-cyano-2,4a,6a,6b,9,9,12a-heptamethyl-10,14-dioxo-1,2,3,4,4a,5,6,6a,6b,7,8,8a,9,10,12a,14,14a,14b-octadecahydropicen-2-yl)-N-cyclopropyl-1,3,4-oxadiazole-2-carboxamide] | > 50 µM | 2.1 µM | 5.8 µM | 1.2 µM | 8.4 µM | < 0.01 µM | 703 ng/mL | 32.5 mL/min/kg | 1.8 h | 496 ng·h/mL | 63 ng/mL | 4.5 h | 364 ng·h/mL | 14.7% | –
Cc1noc([C@@]2(C)CC[C@]3(C)CC[C@]4(C)[C@H](C(=O)C=C5[C@@]6(C)C=C(C#N)C(=O)C(C)(C)[C@@H]6CC[C@]54C)[C@@H]3C2)n1 [Example 15, (4aR,6aS,6bR,8aS,11S,12aS,12bR,14bS)-4,4,6a,6b,8a,11,14b-heptamethyl-11-(3-methyl-1,2,4-oxadiazol-5-yl)-3,13-dioxo-3,4,4a,5,6,6a,6b,7,8,8a,9,10,11,12,12a,12b,13,14b-octadecahydropicene-2-carbonitrile] | > 50 µM | 1.6 µM | 13.6 µM | 2.6 µM | 36.2 µM | < 0.01 µM | 380 ng/mL | 47 mL/min/kg | 2.8 h | 329 ng·h/mL | 89 ng/mL | 1.7 h | 412 ng·h/mL | 25% | –
CC1(C)C(=O)C(C#N)=C[C@]2(C)C3=CC(=O)[C@@H]4[C@@H]5C[C@@](C)(N6CCOC6=O)CC[C@]5(C)CC[C@@]4(C)[C@]3(C)CC[C@@H]12 [Example 13, (4aR,6aS,6bR,8aS,11S,12aS,12bR,14bS)-4,4,6a,6b,8a,11,14b-heptamethyl-3,13-dioxo-11-(2-oxooxazolidin-3-yl)-3,4,4a,5,6,6a,6b,7,8,8a,9,10,11,12,12a,12b,13,14b-octadecahydropicene-2-carbonitrile] | > 50 µM | 1.9 µM | 11.7 µM | 1.9 µM | > 50 µM | < 0.01 µM | 355 ng/mL | 78.9 mL/min/kg | 2.2 h | 206 ng·h/mL | 45 ng/mL | 2.1 h | 197 ng·h/mL | 19.2% | –

The next lines start with results.

IC50 [1] | IC50 [2] | IC50 [3] | IC50 [4] | IC50 [5] | IC50 [8] | C0 ([12]; IV (1 mg/kg)) | clearance ([12]; IV (1 mg/kg)) | half-life ([12]; IV (1 mg/kg)) | AUC(0-t) ([12]; IV (1 mg/kg)) | Cmax ([12]; Oral (5 mg/kg)) | half-life ([12]; Oral (5 mg/kg)) | AUC(0-t) ([12]; Oral (5 mg/kg)) | bioavailability [12] | SMILES | also measured
> 50 µM | 1 µM | 6.2 µM | 3 µM | 10.3 µM | < 0.01 µM | – | – | – | – | – | – | – | – | CC1(C)C(=O)C(C#N)=C[C@]2(C)C3=CC(=O)[C@@H]4[C@@H]5C[C@@](C)(Cc6nnco6)CC[C@]5(C)CC[C@@]4(C)[C@]3(C)CC[C@@H]12 [Example 14, (4aR,6aS,6bR,8aR,11S,12aS,12bR,14bS)-11-((1,3,4-oxadiazol-2-yl)methyl)-4,4,6a,6b,8a,11,14b-heptamethyl-3,13-dioxo-3,4,4a,5,6,6a,6b,7,8,8a,9,10,11,12,12a,12b,13,14b-octadecahydropicene-2-carbonitrile] | CLint scaled at 1 μM [6]: 87.9 mL/min/kg; half-life at 1 μM [6]: 0.237 h; CLint scaled at 1 μM [7]: 602 mL/min/kg; half-life at 1 μM [7]: 3.1 min; CLint scaled at 1 μM [9]: 1460 mL/min/kg; half-life at 1 μM [9]: 0.0633 h; CLint scaled at 1 μM [10]: 228 mL/min/kg; half-life at 1 μM [10]: 0.147 h; CLint scaled at 1 μM [11]: 695 mL/min/kg; half-life at 1 μM [11]: 0.06 h
> 50 µM | 2.8 µM | 9.7 µM | 2.7 µM | > 50 µM | < 0.01 µM | 359 ng/mL | 85.7 mL/min/kg | 1.7 h | 191 ng·h/mL | 29 ng/mL | 4.1 h | 94 ng·h/mL | 9.9% | CC1(C)C(=O)C(C#N)=C[C@]2(C)C3=CC(=O)[C@@H]4[C@@H]5C[C@@](C)(N6CCCC6=O)CC[C@]5(C)CC[C@@]4(C)[C@]3(C)CC[C@@H]12 [Example 12, (4aR,6aS,6bR,8aS,11S,12aS,12bR,14bS)-4,4,6a,6b,8a,11,14b-heptamethyl-3,13-dioxo-11-(2-oxopyrrolidin-1-yl)-3,4,4a,5,6,6a,6b,7,8,8a,9,10,11,12,12a,12b,13,14b-octadecahydropicene-2-carbonitrile] | –
